Laboratory results from US8912227B1, “Bicyclic pyrrole derivatives useful as agonists of GPR120” (Janssen Pharmaceutica NV, priority 2014, dated 2014).

Tests used:
Type in all cases: cell-based
Human GPR120 short form [1] = target: T1, Human GPR120 short form (Homo sapiens, UniProt Q5NUL3); assay: Human GPR120 calcium flux assay, Procedure Calcium A; conditions: HEK-293 cells expressing human GPR120 short form, 2500 cells/well, FLIPR
T1 construct: expressed in transfected cells
T1 sequence (Q5NUL3 1-361): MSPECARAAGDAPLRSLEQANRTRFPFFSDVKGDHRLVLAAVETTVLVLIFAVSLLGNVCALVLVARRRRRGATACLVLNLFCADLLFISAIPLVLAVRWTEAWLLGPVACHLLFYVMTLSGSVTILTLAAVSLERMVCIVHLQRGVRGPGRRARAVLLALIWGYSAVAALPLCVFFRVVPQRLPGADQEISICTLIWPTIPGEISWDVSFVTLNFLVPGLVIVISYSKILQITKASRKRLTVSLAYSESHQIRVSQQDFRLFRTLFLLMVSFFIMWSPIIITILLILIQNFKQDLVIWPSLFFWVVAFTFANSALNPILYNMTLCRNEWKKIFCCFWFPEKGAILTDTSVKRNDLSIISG
Method in brief: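 HEK293 cells stably expressing the human GPR120 short splice variant (NM_001195755.1) were seeded at 2500 cells/well, serum-starved 1 h and loaded with Fluo-4 NW plus probenecid. Compounds (100–0.012 μM solutions, 0.2% final DMSO) were added, and FLIPR calcium flux was read for 300 s. EC50 came from a variable-slope fit (Hill <2) of Fmax−Fmin.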

Human GPR120 short form [2] = target: T1, Human GPR120 short form; assay: Human GPR120 calcium flux assay, Procedure Calcium B; conditions: HEK-293 cells expressing human GPR120 short form, 4200 cells/well, FLIPR
[3] = target: T2, long form of human GPR120 (Homo sapiens, UniProt Q5NUL3); assay: Human GPR120 DiscoveRx PathHunter β-Arrestin assay, Procedure β-arrestin A; conditions: PathHunter CHO-K1 GPR120 β-Arrestin cell line, 3000 cells per well
T2 construct: host or cells: PathHunter CHO-K1 GPR120 β-Arrestin Cell Line
T2 sequence (Q5NUL3 1-377 isoform Q5NUL3-1): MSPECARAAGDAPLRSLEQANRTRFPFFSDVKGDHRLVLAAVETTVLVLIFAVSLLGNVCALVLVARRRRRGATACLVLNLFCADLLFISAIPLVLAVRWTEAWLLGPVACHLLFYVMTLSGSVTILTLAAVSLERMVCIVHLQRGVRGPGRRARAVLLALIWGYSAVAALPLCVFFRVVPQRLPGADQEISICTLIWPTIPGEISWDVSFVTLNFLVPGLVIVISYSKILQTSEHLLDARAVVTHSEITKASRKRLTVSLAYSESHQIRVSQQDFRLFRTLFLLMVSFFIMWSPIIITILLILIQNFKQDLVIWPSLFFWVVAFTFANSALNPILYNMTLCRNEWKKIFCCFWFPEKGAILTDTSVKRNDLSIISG
T2 sequence (P32121 whole entry partner): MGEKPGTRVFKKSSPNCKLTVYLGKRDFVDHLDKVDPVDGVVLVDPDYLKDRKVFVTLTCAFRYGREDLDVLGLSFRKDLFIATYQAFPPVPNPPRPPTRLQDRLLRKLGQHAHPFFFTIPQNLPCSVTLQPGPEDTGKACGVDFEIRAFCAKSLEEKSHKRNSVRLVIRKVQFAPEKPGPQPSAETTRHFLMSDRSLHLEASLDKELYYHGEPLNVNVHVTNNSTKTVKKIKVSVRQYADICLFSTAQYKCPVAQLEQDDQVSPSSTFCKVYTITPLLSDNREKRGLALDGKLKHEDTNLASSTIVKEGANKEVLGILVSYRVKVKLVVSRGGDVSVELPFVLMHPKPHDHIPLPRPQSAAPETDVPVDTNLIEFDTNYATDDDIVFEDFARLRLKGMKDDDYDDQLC
Excerpt: (§1) The binding of an agonist (medium/long chain fatty acids or small molecule agonists) to the G-protein-coupled receptor GPR120 activates phospholipase C, leading to release of intracellular Ca^+2 through the generation of inositol 1,4,5-trisphosphate (InsP3 or IP3). GPR120 activation can also trigger intracellular signaling via recruitment of β-Arrestin. In the present method, agonist-induced activation of the human GPR120 receptor is monitored through the use of PathHunter CHO-K1 GPR120 β-Arrestin Cell Line engineered by DiscoveRx, as detailed below. The cell lines are designed to co-express both the ProLink/Enzyme Donor (PK)-tagged GPCR and the Enzyme […] (EA)-tagged Beta-Arrestin fusion proteins. Upon GPR120 receptor stimulation/activation, the EA-tagged β-Arrestin portion is translocated to the tagged receptor, where the two enzyme fragments are brought within close proximity. Under these conditions, these fragments can interact and form an active Beta-gal enzyme complex through Enzyme Fragment Complementation (EFC). This active Beta-gal complex can enzymatically hydrolyse the substrate to produce a detectable light signal; therefore, activation as a function of agonist concentration can be expressed as an EC50 value to determine relative compound activities. This in vitro assay therefore serves to assess compound agonist activity of the GPR120.
In Procedure β-arrestin A, the cell used were PathHunter CHO-K1 GPR120 β-Arrestin Cell Line, expressing the long form of human GPR120 (Genbank accession number NM_181745), with 3000 cells per well.
(§2) The selected CHO-K1 GPR120 β-Arrestin cells were cultured in Ham's F12 media supplemented with 10% fetal bovine serum (FBS), 1% Glutamine, 1×p/s, 800 μg/ml G418 and 300 μg/ml Hygromycin B (for selection). Cell stocks were maintained and grown in a sub-confluent state using standard cell culture procedures. The day before the experiment, the cells were harvested with non-enzymatic cell dissociation buffer and re-suspended in complete growth media at the desired concentration. A Corning 384-plate was then seeded with the proper number of cells in a volume of 25 μL, per well. The seeded plates were incubated overnight at 37° C.
(§3) On the day of the experiment, the Assay Buffer containing (a) HBSS with Ca^++ and Mg^++, (b) 20 mM HEPES, and (c) 0.1% BSA stabilizer (pH 7.4) was prepared. The growth medium was gently removed from the cell plates and 20 μL of Assay Buffer added to each well. The plate was then incubated at 37° C. for 60 mins. Test compounds were serially diluted in Assay Buffer to desired concentrations (more particularly, to one or more of the following μM concentrations: 25 μM, 12.5 μM, 6.25 μM, 3.125 μM, 1.562 μM, 0.781 μM, 0.391 μM, 0.195 μM, 0.098 μM, 0.049 μM, 0.024 μM, 0.012 μM). Five μl of compound dilution was then added to each well and the plate incubated at 37° C. for 90 mins. The detection reagents were prepared according to the manufacture's instruction. Twelve μL of the detection reagents were added to each well and the plate incubated at room temperature for 60 mins.
(§4) The plates were read on an EnVision instrument, using Protocol name: Luminescence, Plate type: 384 Costar, Measurement height: 3 mm, Measurement time: 1 s, Aperture: 384 Plate aperture. The % activity relative to the positive control was calculated using the following equation:
(§5) The % Activity values were plotted versus the concentration of test compound and fitted to a sigmoidal dose-response curve with a Hill slope=1 (fixed value) using nonlinear regression with GraphPad Prism 5.0 to calculate the EC50 values. The Fitting Equation was: Y=Bottom+(Top−Bottom)/(1+10^((LogEC50−X)*HillSlope)), where X is the log of the concentration and Y is the response.

[4] = target: T3, short form of the GPR120 receptor (Homo sapiens, UniProt Q5NUL3); assay: Human GPR120 DiscoveRx PathHunter β-Arrestin assay, Procedure β-arrestin B; conditions: PathHunter CHO-K1 GPR120S β-Arrestin cell line, 5000 cells/well
T3 construct: host or cells: PathHunter CHO-K1 GPR120S β-Arrestin Cell Line
T3 sequence (P32121 whole entry partner, one chain of several): as the sequence (P32121 whole entry partner) above
Excerpt: as §1
In Procedure β-arrestin B the cells used were PathHunter CHO-K1 GPR120S β-Arrestin Cell Line, expressing the short form of the GPR120 receptor (Accession #NM_181745), with 5000 cells/well.
as §2, §3, §4, §5

EC50 (Human GPR120 short form [1]) | EC50 (Human GPR120 short form [2]) | EC50 [3] | EC50 [4] | SMILES
0.222 µM | 0.067 µM | 0.061 µM | – | COc1ccc(-n2ccc(C(F)(F)F)c2COc2c(F)cc(CCCO)cc2F)cc1 [Compound 31, 3-(3,5-Difluoro-4-{[1-(4-methoxyphenyl)-3-(trifluoromethyl)-1H-pyrrol-2-yl]methoxy}phenyl)propan-1-ol]
0.434 µM | 0.082 µM | 0.048 µM | – | CCc1ccc(-n2ccc(C(F)(F)F)c2COc2c(F)cc(CCCO)cc2F)cc1 [Compound 33, 3-(4-[[1-(4-ethylphenyl)-3-(trifluoromethyl)-1H-pyrrol-2-yl]methoxy]-3,5-difluoro-phenyl)propan-1-ol]
0.119 µM | 0.028 µM | 0.016 µM | – | Cc1ccc(-n2ccc(C(F)(F)F)c2COc2c(F)cc(CCCO)cc2F)cc1 [Compound 37, 3-(3,5-difluoro-4-[[1-(4-methylphenyl)-3-(trifluoromethyl)-1H-pyrrol-2-yl]methoxy]phenyl)propan-1-ol]
0.81 µM | 0.084 µM | 0.293 µM | – | Cc1ccc(-n2ccc(C(F)(F)F)c2COc2ccc(CCC(=O)O)c(F)c2F)cc1 [Compound 42, 3-(2,3-difluoro-4-[[1-(4-methylphenyl)-3-(trifluoromethyl)-1H-pyrrol-2-yl]methoxy]phenyl)propanoic acid]
0.432 µM | 0.05 µM | 0.098 µM | – | Cc1ccc(-n2ccc(C(F)(F)F)c2COc2ccc(CCCO)c(F)c2F)cc1 [Compound 44, 3-(2,3-difluoro-4-[[1-(4-methylphenyl)-3-(trifluoromethyl)-1H-pyrrol-2-yl]methoxy]phenyl)propan-1-ol]
0.621 µM | 0.043 µM | 0.099 µM | – | OCCCc1cc(F)c(OCc2c(C(F)(F)F)ccn2-c2ccc(Cl)cc2)c(F)c1 [Compound 46, 3-(4-{[1-(4-Chlorophenyl)-3-(trifluoromethyl)-1H-pyrrol-2-yl]methoxy}-3,5-difluorophenyl)propan-1-ol]
0.375 µM | 0.066 µM | 0.241 µM | – | Cc1ccc(-n2ccc(C(F)(F)F)c2COc2ccc(CCCO)c(F)c2F)cn1 [Compound 47, 3-(2,3-difluoro-4-[[1-(6-methylpyridin-3-yl)-3-(trifluoromethyl)-1H-pyrrol-2-yl]methoxy]phenyl)propan-1-ol trifluoroacetic acid]
0.098 µM | 0.03 µM | 0.098 µM | – | Cc1ccc(-n2ccc(C(F)(F)F)c2COc2c(F)cc(CCCO)cc2F)cn1 [Compound 48, 3-(3,5-difluoro-4-((1-(6-methylpyridin-3-yl)-3-(trifluoromethyl)-1H-pyrrol-2-yl)methoxy)phenyl)propan-1-ol trifluoroacetic acid]
0.87 µM | 0.289 µM | 1.24 µM | – | Cc1ccc(-n2ccc(C(F)(F)F)c2COc2c(F)cc(CCC(=O)O)cc2F)cn1 [Compound 49, 3-(3,5-Difluoro-4-{[1-(6-methylpyridin-3-yl)-3-(trifluoromethyl)-1H-pyrrol-2-yl]methoxy}phenyl)propanoic acid]
0.882 µM | 0.162 µM | 0.932 µM | – | CCc1ccc(-n2ccc(C(F)(F)F)c2COc2ccc(CCC(=O)O)c(F)c2F)cn1 [Compound 58, 3-(4-[[1-(6-ethylpyridin-3-yl)-3-(trifluoromethyl)-1H-pyrrol-2-yl]methoxy]-2,3-difluorophenyl)propanoic acid]

More lines, now with the values behind:

SMILES | EC50 (Human GPR120 short form [1]) | EC50 (Human GPR120 short form [2]) | EC50 [3] | EC50 [4]
CCc1ccc(-n2ccc(C(F)(F)F)c2COc2c(F)cc(CCC(=O)O)cc2F)cc1 [Compound 32, 3-(4-[[1-(4-ethylphenyl)-3-(trifluoromethyl)-1H-pyrrol-2-yl]methoxy]-3,5-difluorophenyl)propanoic acid] | 0.402 µM | 0.117 µM | 0.357 µM | –
OCCCc1cc(F)c(OCc2c(C(F)(F)F)ccn2-c2ccccc2)c(F)c1 [Compound 35, 3-(3,5-difluoro-4-[[1-phenyl-3-(trifluoromethyl)-1H-pyrrol-2-yl]methoxy]phenyl)propan-1-ol] | 0.507 µM | 0.063 µM | 0.201 µM | –
CCc1ccc(-n2ccc(C(F)(F)F)c2COc2ccc(CCC(=O)O)c(C)c2C)cc1 [Compound 36, 3-(4-[[1-(4-ethylphenyl)-3-(trifluoromethyl)-1H-pyrrol-2-yl]methoxy]-2,3-dimethylphenyl)propanoic acid] | 0.444 µM | 0.145 µM | 0.12 µM | –
O=C(O)CCc1cc(F)c(OCc2c(C(F)(F)F)ccn2-c2ccccc2)c(F)c1 [Compound 38, 3-(3,5-difluoro-4-((1-phenyl-3-(trifluoromethyl)-1H-pyrrol-2-yl)methoxy)phenyl)propanoic acid] | 0.45 µM | 0.101 µM | 0.678 µM | –
Cc1ccc(-n2ccc(C(F)(F)F)c2COc2ccc(CCC(=O)O)c(C)c2C)cc1 [Compound 43, 3-(2,3-dimethyl-4-[[1-(4-methylphenyl)-3-(trifluoromethyl)-1H-pyrrol-2-yl]methoxy]phenyl)propanoic acid] | 0.558 µM | 0.063 µM | 0.359 µM | –
CC(Cc1cc(F)c(OCc2c(C(F)(F)F)ccn2-c2ccc(Cl)cc2)c(F)c1)C(=O)O (stereo not drawn) [Compound 59, 3-(4-[[1-(4-chlorophenyl)-3-(trifluoromethyl)-1H-pyrrol-2-yl]methoxy]-3,5-difluorophenyl)-2-methylpropanoic acid] | – | 0.29 µM | – | 0.417 µM
Cc1ccc(-n2ccc(C(F)(F)F)c2COc2c(F)cc(CC(C)C(=O)O)cc2F)cc1 (stereo not drawn) [Compound 60, 3-(3,5-difluoro-4-[[1-(4-methylphenyl)-3-(trifluoromethyl)-1H-pyrrol-2-yl]methoxy]phenyl)-2-methylpropanoic acid] | – | 0.186 µM | – | 0.549 µM
CCc1ccc(-n2ccc(C(F)(F)F)c2COc2c(F)cc(CC(C)C(=O)O)cc2F)cc1 (stereo not drawn) [Compound 61, 3-(4-[[1-(4-ethylphenyl)-3-(trifluoromethyl)-1H-pyrrol-2-yl]methoxy]-3,5-difluorophenyl)-2-methylpropanoic acid] | – | 0.236 µM | – | 0.639 µM
